The results in this text go back to patent US20200190087A1 (priority 2016, published 2020).

SMILES strings stand for the structures. Like-named read-outs stand apart in the source and are kept apart here. Bounds are passed on as bounds.

One assay deals with T1, human μ-opioid receptor (Homo sapiens, UniProt P35372).
T1 construct: expressed in transfected cells; host or cells: CHO-K1
Put plainly: Human μ-opioid receptor radioligand assay ([3H]-DAMGO). In kind it is binding. The method, then:
Human μ-Opioid Receptor Radioligand Assay
To investigate binding properties of test compounds to human μ-opioid receptor, transfected CHO-K1 cell membranes and [^3H]-DAMGO (Perkin Elmer, ES-542-C), as the radioligand, were used. The assay was carried out with 20 μg of membrane suspension, 1 nM of [^3H]-DAMGO in either absence or presence of either buffer or 10 μM Naloxone for total and non-specific binding, respectively. Binding buffer contained Tris-HCl 50 mM, MgCl2 5 mM at pH 7.4. Plates were incubated at 27° C. for 60 minutes. After the incubation period, the reaction mix was then transferred to MultiScreen HTS, FC plates (Millipore), filtered and plates were washed 3 times with ice-cold 10 mM Tris-HCL (pH 7.4). Filters were dried and counted at approximately 40% efficiency in a MicroBeta scintillation counter (Perkin-Elmer) using EcoScint liquid scintillation cocktail. Preferably, transfected CHO-K1 cell membranes (20 μg) were incubated with 1 nM of [^3H]-DAMGO in assay buffer containing Tris-HCl 50 mM, MgCl2 5 mM at pH 7.4. NBS (non-specific binding) was measured by adding 10 μM Naloxone. The binding of the test compound was measured at five different concentrations. Plates were incubated at 27° C. for 60 minutes. After the incubation period, the reaction mix was then transferred to MultiScreen HTS, FC plates (Millipore), filtered and plates were washed 3 times with ice-cold 10 mM Tris-HCL (pH 7.4). Filters were dried and counted at approximately 40% efficiency in a MicroBeta scintillation counter (Perkin-Elmer) using EcoScint liquid scintillation cocktail.

In assay [1] the target is Human α2δ-1 subunit of Cav2.2 calcium channel (Homo sapiens, UniProt P54289). Put plainly: Human α2δ-1 subunit of Cav2.2 calcium channel assay ([3H]-Gabapentin binding). The following applies: human α2δ-1 enriched membranes, 15 nM [3H]-Gabapentin, binding expressed as Ki; read-out: α2δ1 binding activity. The protocol:
Human α2δ-1 Subunit of Cav2.2 Calcium Channel Assay
Human α2δ-1 enriched membranes (2.5 μg) were incubated with 15 nM of radiolabeled [3H]-Gabapentin in assay buffer containing Hepes-KOH 10 mM, pH 7.4. NSB (non specific binding) was measured by adding 10 μM pregabalin. The binding of the test compound was measured at five different concentrations. After 60 min incubation at 27° C., binding reaction was terminated by filtering through Multiscreen GF/C (Millipore) presoaked in 0.5% polyethyleneimine in Vacuum Manifold Station, followed by 3 washes with ice-cold filtration buffer containing 50 mM Tris-HCl, pH 7.4. Filter plates were dried at 60° C. for 1 hour and 30 μl of scintillation cocktail were added to each well before radioactivity reading. Readings were performed in a Trilux 1450 Microbeta radioactive counter (Perkin Elmer).

Setting [2] is: transfected CHO-K1 cell membranes, 1 nM [3H]-DAMGO, binding expressed as Ki, read-out: Mu binding activity.

Human α2δ-1 subunit of Cav2.2 calcium channel, sequence (P54289 25-1103): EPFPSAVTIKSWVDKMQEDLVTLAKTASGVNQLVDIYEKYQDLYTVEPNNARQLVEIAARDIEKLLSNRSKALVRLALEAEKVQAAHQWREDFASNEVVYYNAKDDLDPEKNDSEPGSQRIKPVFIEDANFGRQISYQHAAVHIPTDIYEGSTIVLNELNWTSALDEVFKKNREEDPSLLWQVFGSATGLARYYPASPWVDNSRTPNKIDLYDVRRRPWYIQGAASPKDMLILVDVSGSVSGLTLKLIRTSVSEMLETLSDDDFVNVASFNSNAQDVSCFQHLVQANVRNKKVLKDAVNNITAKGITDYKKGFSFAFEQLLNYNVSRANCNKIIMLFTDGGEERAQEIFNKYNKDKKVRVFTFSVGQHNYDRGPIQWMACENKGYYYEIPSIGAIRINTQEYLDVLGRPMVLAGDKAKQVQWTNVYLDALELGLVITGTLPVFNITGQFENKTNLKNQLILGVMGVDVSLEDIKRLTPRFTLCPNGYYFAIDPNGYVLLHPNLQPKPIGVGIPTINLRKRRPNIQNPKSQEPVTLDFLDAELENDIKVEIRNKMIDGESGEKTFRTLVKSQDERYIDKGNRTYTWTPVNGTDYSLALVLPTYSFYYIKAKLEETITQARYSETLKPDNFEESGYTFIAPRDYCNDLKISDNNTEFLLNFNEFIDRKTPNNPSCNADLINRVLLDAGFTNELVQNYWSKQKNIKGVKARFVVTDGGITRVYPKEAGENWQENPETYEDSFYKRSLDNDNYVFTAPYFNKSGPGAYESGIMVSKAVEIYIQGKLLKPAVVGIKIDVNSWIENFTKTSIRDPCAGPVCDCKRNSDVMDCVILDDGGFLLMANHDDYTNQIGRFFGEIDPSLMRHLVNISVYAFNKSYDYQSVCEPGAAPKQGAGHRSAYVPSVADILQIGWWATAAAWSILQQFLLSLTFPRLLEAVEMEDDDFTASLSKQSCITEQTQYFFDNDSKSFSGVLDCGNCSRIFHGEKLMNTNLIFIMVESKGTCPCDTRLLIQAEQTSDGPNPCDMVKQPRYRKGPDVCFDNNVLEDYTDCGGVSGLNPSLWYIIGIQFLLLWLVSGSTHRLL
T1 sequence (P35372 whole entry): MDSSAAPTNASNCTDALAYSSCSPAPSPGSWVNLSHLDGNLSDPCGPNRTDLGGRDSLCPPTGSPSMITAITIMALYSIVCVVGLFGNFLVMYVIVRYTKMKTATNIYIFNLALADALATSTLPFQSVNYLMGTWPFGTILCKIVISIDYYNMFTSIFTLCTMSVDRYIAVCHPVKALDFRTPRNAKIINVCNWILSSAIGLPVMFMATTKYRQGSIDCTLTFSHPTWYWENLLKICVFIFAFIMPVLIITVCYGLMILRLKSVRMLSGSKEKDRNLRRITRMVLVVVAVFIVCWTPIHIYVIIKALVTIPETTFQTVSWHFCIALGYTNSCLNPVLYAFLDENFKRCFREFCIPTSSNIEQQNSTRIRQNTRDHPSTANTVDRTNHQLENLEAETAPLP

On to `CCOc1ccc(-n2nc3c(C4CCN(CCc5ccccc5)CC4)nnc(C)c3c2C)c(F)c1` [Ex 25, 2-(4-Ethoxy-2-fluorophenyl)-3,4-dimethyl-7-(1-phenethylpiperidin-4-yl)-2H-pyrazolo[3,4-d]pyridazine], for which the Ki was less than 500 nM on human μ-opioid receptor and 500 to 3000 nM in assay [1].
Take `CCOc1ccc(-n2nc3c(C4CCN(CCc5ccccn5)CC4)nnc(C)c3c2C)c(F)c1` [Ex 42, 2-(4-Ethoxy-2-fluorophenyl)-3,4-dimethyl-7-(1-(2-(pyridin-2-yl)ethyl)piperidin-4-yl)-2H-pyrazolo[3,4-d]pyridazine]: the Ki was greater than 500 nM on human μ-opioid receptor (setting [2]) and 500 to 3000 nM in assay [1].
Consider `CCOc1ccc(-n2nc3c(C4CCN(Cc5ncccc5C(F)(F)F)CC4)nnc(C)c3c2C)c(F)c1` [Ex 49, 2-(4-Ethoxy-2-fluorophenyl)-3,4-dimethyl-7-(1-((3-(trifluoromethyl)pyridin-2-yl)methyl)piperidin-4-yl)-2H-pyrazolo[3,4-d]pyridazine], for which the Ki on human μ-opioid receptor (setting [2]) was greater than 500 nM; in assay [1], 500 to 3000 nM.
On to `CCOc1ccc(-n2nc3c(C4CCCN(C(=O)OC(C)(C)C)C4)nnc(C)c3c2C)c(F)c1` (centres unmarked) [Ex 15, tert-Butyl-3-(2-(4-ethoxy-2-fluorophenyl)-3,4-dimethyl-2H-pyrazolo[3,4-d]pyridazin-7-yl)piperidine-1-carboxylate], for which the Ki is greater than 500 nM at human μ-opioid receptor (setting [2]) and no less than 5000 nM in assay [1].
In the same order, the values of `CCOc1ccc(-n2nc3c(C(C#N)Cc4ccccc4)nnc(C)c3c2C)c(F)c1` (centres unmarked) [Ex 65, 2-(2-(4-Ethoxy-2-fluorophenyl)-3,4-dimethyl-2H-pyrazolo[3,4-d]pyridazin-7-yl)-3-phenylpropanenitrile] are greater than 500 nM and 500 to 3000 nM.
For the compound `CCOc1ccc(-n2nc3c(/C=C/CNC(=O)OC(C)(C)C)nnc(C)c3c2C)c(F)c1` [Ex 4, tert-Butyl (E)-(3-(2-(4-ethoxy-2-fluorophenyl)-3,4-dimethyl-2H-pyrazolo[3,4-d]pyridazin-7-yl)allyl)carbamate], the Ki on human μ-opioid receptor (setting [2]) was greater than 500 nM; in assay [1], no less than 5000 nM.
On to `CCOc1ccc(-n2nc3c(C4CCN(Cc5ccccc5)CC4)nnc(C)c3c2C)c(F)c1` [Ex 26, 7-(1-Benzylpiperidin-4-yl)-2-(4-ethoxy-2-fluorophenyl)-3,4-dimethyl-2H-pyrazolo[3,4-d]pyridazine], for which the Ki (at human μ-opioid receptor; in assay [1]) was less than 500 nM in each case.
`CCOc1ccc(-n2nc3c(-c4ccc(CCN(C)C)cc4)nnc(C)c3c2C)c(F)c1` [Ex 7, 2-(4-(2-(4-Ethoxy-2-fluorophenyl)-3,4-dimethyl-2H-pyrazolo[3,4-d]pyridazin-7-yl)phenyl)-N,N-dimethylethan-1-amine]: the Ki on human μ-opioid receptor (setting [2]) was greater than 500 nM; in assay [1] it was 500 to 3000 nM.
In the same order, the values of `CCOc1ccc(-n2nc3c(-c4ccc5ncn(CCN(C)C)c5c4)nnc(C)c3c2C)c(F)c1` [Ex 10, 2-(6-(2-(4-Ethoxy-2-fluorophenyl)-3,4-dimethyl-2H-pyrazolo[3,4-d]pyridazin-7-yl)-1H-benzo[d]imidazol-1-yl)-N,N-dimethylethan-1-amine] are greater than 500 nM and 3000 to 5000 nM.
Take `CCOc1ccc(-n2nc3c(CCNCCc4ccccc4)nnc(C)c3c2C)c(F)c1` [Ex 41, 2-(2-(4-Ethoxy-2-fluorophenyl)-3,4-dimethyl-2H-pyrazolo[3,4-d]pyridazin-7-yl)-N-phenethylethan-1-amine]: the Ki at human μ-opioid receptor (setting [2]) was greater than 500 nM; in assay [1] it was no less than 5000 nM.
Take `CCOc1ccc(-n2nc3c(C4CCN(CCc5cccc(F)c5)CC4)nnc(C)c3c2C)c(F)c1` [Ex 44, 2-(4-Ethoxy-2-fluorophenyl)-7-(1-(3-fluorophenethyl)piperidin-4-yl)-3,4-dimethyl-2H-pyrazolo[3,4-d]pyridazine]: the Ki at human μ-opioid receptor is less than 500 nM; in assay [1], 500 to 3000 nM.
Take `CCOc1ccc(-n2nc3c(C4CCN(Cc5ncccc5Cl)CC4)nnc(C)c3c2C)c(F)c1` [Ex 51, 7-(1-((3-Chloropyridin-2-yl)methyl)piperidin-4-yl)-2-(4-ethoxy-2-fluorophenyl)-3,4-dimethyl-2H-pyrazolo[3,4-d]pyridazine]: the Ki at human μ-opioid receptor (setting [2]) is greater than 500 nM; in assay [1] it was 500 to 3000 nM.
In the same order, the values of `CCOc1ccc(-n2nc3c(C4CCNCC4)nnc(C)c3c2C)c(F)c1` [Ex 18, 2-(4-Ethoxy-2-fluorophenyl)-3,4-dimethyl-7-(piperidin-4-yl)-2H-pyrazolo[3,4-d]pyridazine] are greater than 500 nM and 500 to 3000 nM.
On to `CCOc1ccc(-n2nc3c(-c4ccc(CN(C)C)cc4)nnc(C)c3c2C)c(F)c1` [Ex 6, 1-(4-(2-(4-Ethoxy-2-fluorophenyl)-3,4-dimethyl-2H-pyrazolo[3,4-d]pyridazin-7-yl)phenyl)-N,N-dimethylmethanamine], for which the Ki at human μ-opioid receptor (setting [2]) is greater than 500 nM; in assay [1], 500 to 3000 nM.
On to `CCOc1ccc(-n2nc3c(C4CCN(CCc5ccccc5F)CC4)nnc(C)c3c2C)c(F)c1` [Ex 43, 2-(4-Ethoxy-2-fluorophenyl)-7-(1-(2-fluorophenethyl)piperidin-4-yl)-3,4-dimethyl-2H-pyrazolo[3,4-d]pyridazine], for which the Ki on human μ-opioid receptor was less than 500 nM; in assay [1] it was 500 to 3000 nM.
With `CCOc1ccc(-n2nc3c(C4=CCN(C)CC4)nnc(C)c3c2C)c(F)c1` [Ex 2, 2-(4-Ethoxy-2-fluorophenyl)-3,4-dimethyl-7-(1-methyl-1,2,3,6-tetrahydropyridin-4-yl)-2H-pyrazolo[3,4-d]pyridazine], the Ki is greater than 500 nM at human μ-opioid receptor (setting [2]) and no less than 5000 nM in assay [1].
